Where two headings read alike, the source gives them in different places.
Biological target: T1, mouse TMEM16A mutant V543A (Mus musculus, UniProt Q8BHY3, V543A)
T1 construct: expressed in transfected cells; host or cells: HEK293T
T1 sequence (Q8BHY3 1-960 V543A): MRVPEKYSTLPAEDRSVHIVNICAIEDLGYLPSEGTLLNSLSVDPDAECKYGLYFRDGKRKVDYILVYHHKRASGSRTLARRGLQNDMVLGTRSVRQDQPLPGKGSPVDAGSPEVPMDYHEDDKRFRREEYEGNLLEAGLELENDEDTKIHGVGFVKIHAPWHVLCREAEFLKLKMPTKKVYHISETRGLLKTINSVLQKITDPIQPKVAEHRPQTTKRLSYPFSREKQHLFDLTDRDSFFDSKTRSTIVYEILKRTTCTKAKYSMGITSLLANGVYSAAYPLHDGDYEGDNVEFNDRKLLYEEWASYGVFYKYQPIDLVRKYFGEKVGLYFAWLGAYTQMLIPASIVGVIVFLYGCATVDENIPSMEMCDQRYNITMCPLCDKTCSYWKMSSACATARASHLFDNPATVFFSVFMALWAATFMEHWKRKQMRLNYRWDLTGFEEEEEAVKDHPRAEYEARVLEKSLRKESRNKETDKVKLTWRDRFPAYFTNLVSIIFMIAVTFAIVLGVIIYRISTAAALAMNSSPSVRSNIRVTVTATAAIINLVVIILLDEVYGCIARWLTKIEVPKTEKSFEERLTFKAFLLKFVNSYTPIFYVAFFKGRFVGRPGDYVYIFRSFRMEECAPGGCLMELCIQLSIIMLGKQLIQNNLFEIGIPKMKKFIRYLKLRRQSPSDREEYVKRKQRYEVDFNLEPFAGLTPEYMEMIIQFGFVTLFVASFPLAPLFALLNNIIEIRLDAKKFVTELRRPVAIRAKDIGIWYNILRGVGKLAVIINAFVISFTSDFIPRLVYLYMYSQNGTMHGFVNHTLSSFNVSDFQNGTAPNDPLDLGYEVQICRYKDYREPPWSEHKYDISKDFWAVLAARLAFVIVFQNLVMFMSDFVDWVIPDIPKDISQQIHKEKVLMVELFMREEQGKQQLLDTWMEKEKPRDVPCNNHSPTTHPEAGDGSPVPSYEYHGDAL
Assay: Inside-out patch recording of 1PBC block, mutant V543A
Type: cell-based
Details: for remaining activity at 30 µM: 1PBC 30; for remaining activity at 30 µM / remaining activity at 100 µM: read-out: fraction of unblocked current; for remaining activity at 100 µM: 1PBC 100
Experimental: HEK293T cells (ATCC CRL-1573) were maintained in Dulbecco’s modified Eagle’s medium (DMEM; Sigma-Aldrich) supplemented with 10 U ml^−1 penicillin, 0.1 mg ml^−1 streptomycin (Sigma-Aldrich), 2 mM L-glutamine (Sigma-Aldrich), and 10% FBS (Sigma-Aldrich) in a humidified atmosphere containing 5% CO2 at 37 °C. HEK293S GnTI^− cells (ATCC CRL-3022) were maintained in HyClone HyCell TransFx-H medium (GE Healthcare) supplemented with 10 U ml^−1 penicillin, 0.1 mg ml^−1 streptomycin, 4 mM L-glutamine, 0.15% poloxamer 188 (Sigma-Aldrich), and 1% FBS in an atmosphere containing 5% CO2 at 185 rpm at 37 °C. The ac splice variant of mouse TMEM16A (UniProt ID: Q8BHY3), mouse TMEM16B (UniProt ID: Q8CFW1), or mouse TMEM16F (UniProt ID: Q6P9J9) bearing a 3C cleavage site, a Venus YFP, a Myc tag, and a Streptavidin-binding peptide (SBP) downstream of the open reading frame in a modified pcDNA3.1 vector (Invitrogen) were used as described previously[21],[31]. Mutations were introduced using a modified QuikChange method[58] and were verified by sequencing.
HEK293T cells were transfected with 3–4 μg DNA per 6 cm Petri dish using the calcium phosphate co-precipitation method and were used within 24–96 h after transfection. Recordings were performed on inside-out patches excised from HEK293T cells expressing the construct of interest. Patch pipettes were pulled from borosilicate glass capillaries (O.D. 1.5 mm, I.D. 0.86 mm, Sutter Instrument) and were fire-polished with a microforge (Narishige) before use. Pipette resistance was typically 3–8 MΩ when filled with the recording solutions detailed below. Seal resistance was typically 4 GΩ or higher. Voltage-clamp recordings were made using Axopatch 200B, Digidata 1550, and Clampex 10.7 (Molecular Devices). Analog signals were filtered with the in-built 4-pole Bessel filter at 10 kHz and were digitized at 20 kHz. Solution exchange was achieved using a gravity-fed system through a theta glass pipette mounted on an ultra-fast piezo-driven stepper (Siskiyou). […] All recordings were performed at 20 °C.
A symmetrical ionic condition was used throughout. Stock solution with Ca^2+-EGTA contained 150 mM NaCl, 5.99 mM Ca(OH)2, 5 mM EGTA, and 10 mM HEPES at pH 7.40. Stock solution with EGTA contained 150 mM NaCl, 5 mM EGTA, and 10 mM HEPES at pH 7.40. Free Ca^2+ concentrations were adjusted by mixing the stock solutions at the required ratios calculated using the WEBMAXC program (http://web.stanford.edu/~cpatton/webmaxcS.htm). Patch pipettes were filled with the stock solution with Ca^2+-EGTA, which has a free Ca^2+ concentration of 1 mM. 1PBC (ChemBridge) stock was reconstituted in anhydrous DMSO (Sigma-Aldrich) at 100 mM and stored at −20 °C. Working solutions with 1PBC were prepared by serial dilution. Unless otherwise stated, experiments were performed at a saturating Ca^2+ concentration as shown in Supplementary Table 1 and the primary data were corrected for current rundown as described previously[21],[25].
Concentration-response relations, obtained from the ratio of the I-V plots before and after the application of the blocker, were fitted to the Hill equation,1 I/Imax=1/1+IC50/[blocker]^h where I/Imax is the normalized current responses, IC50 defines the concentration at which inhibition is at its half-maximum, and h is the Hill coefficient.

SMILES: N#Cc1c(C(F)(F)F)cc(O)n2c1nc1ccccc12 [1PBC]
- remaining activity at 30 µM (-60 mV): 39.5%
- remaining activity at 30 µM (-80 mV): 43.8%
- remaining activity at 30 µM (-100 mV): 47.1%
- remaining activity at 30 µM (-120 mV): 51.5%
- remaining activity at 30 µM (-140 mV): 54.7%
- remaining activity at 100 µM (0 mV): 9.46%
- remaining activity at 100 µM (20 mV): 7.3%
- remaining activity at 100 µM (40 mV): 6.78%
- remaining activity at 100 µM (60 mV): 6.85%
- remaining activity at 100 µM (80 mV): 6.35%
- remaining activity at 100 µM (100 mV): 6.17%
- remaining activity at 100 µM (120 mV): 6.44%
- remaining activity at 100 µM (140 mV): 6.48%
- remaining activity at 100 µM (-20 mV): 11.6%
- remaining activity at 100 µM (-40 mV): 13.7%
- remaining activity at 100 µM (-60 mV): 16%
- remaining activity at 100 µM (-80 mV): 18.7%
- remaining activity at 100 µM (-100 mV): 21.8%
- remaining activity at 100 µM (-120 mV): 25%
- remaining activity at 100 µM (-140 mV): 27.8%
- IC50 (20 mV, 15 µM Ca2+): 9.55 µM
- IC50 (40 mV, 15 µM Ca2+): 8.65 µM
- IC50 (60 mV, 15 µM Ca2+): 8.16 µM
- log-fold IC50 (change of mutant vs WT) (80 mV): 0.6263
- IC50 (80 mV, 15 µM Ca2+): 8.02 µM
- IC50 (100 mV, 15 µM Ca2+): 8.37 µM
- IC50 (120 mV, 15 µM Ca2+): 8.93 µM
- IC50 (140 mV, 15 µM Ca2+): 9.55 µM
- IC50 (-20 mV, 15 µM Ca2+): 13.1 µM
- IC50 (-40 mV, 15 µM Ca2+): 15.6 µM
- IC50 (-60 mV, 15 µM Ca2+): 18.6 µM
- IC50 (-80 mV, 15 µM Ca2+): 22 µM
- IC50 (-100 mV, 15 µM Ca2+): 25.7 µM
- IC50 (-120 mV, 15 µM Ca2+): 30.4 µM
- IC50 (-140 mV, 15 µM Ca2+): 34.9 µM
- IC50 (V543A, V 0 mV): 11.2 µM
- IC50 (V543A, V 20 mV): 9.55 µM
- IC50 (V543A, V 40 mV): 8.65 µM
- IC50 (V543A, V 60 mV): 8.16 µM
- IC50 (V543A, V 80 mV): 8.02 µM
- IC50 (V543A, V 100 mV): 8.37 µM
- IC50 (V543A, V 120 mV): 8.93 µM
- IC50 (V543A, V 140 mV): 9.55 µM
- IC50 (V543A, V -20 mV): 13.1 µM
- IC50 (V543A, V -40 mV): 15.6 µM
- IC50 (V543A, V -60 mV): 18.6 µM
- IC50 (V543A, V -80 mV): 22 µM
- IC50 (V543A, V -100 mV): 25.7 µM
- IC50 (V543A, V -120 mV): 30.4 µM
- IC50 (V543A, V -140 mV): 34.9 µM

— PMC9120017, “Inhibition mechanism of the chloride channel TMEM16A by the pore blocker 1PBC” (Nature Communications, 2022)
